Measured values from patent US4174406A, “Terpenylaminoalkanol fish toxicants” (priority 1977, dated 1979).
In brackets after ≈: the same amount, converted by molar mass.

Tests used:
Largemouth buffalo = assay: Outdoor plastic pool test (Table 3); format: in vivo, Ictibous cyprinellus; conditions: 96 hour, 50% formulation (hydrochloride salt)
Protocol: (§1) N-(2-hydroxyethyl) digeranylamine was tested as a selective fish toxicant in outdoor pools stocked with various fish species and lined with black plastic using 50% water soluble formulations (hydrochloride salt). The formulation was added to each of four pools of 4,000-liter capacity at concentrations of 0.10, 0.15, 0.20, and 0.30 mg/liter. Another pool containing the same number, size, and species of fish served as a control. The test water had algal blooms, a pH of about 8.5, and a total hardness of about 200 mg/liter as CaCo3. The temperature was cool enough (15°-16°C.) to permit the use of trout.
(§2) Fish were obtained from state and federal hatcheries and maintained prior to testing by a trained fish culturist. Fish of total length 2-5 cm were used in laboratory tests while for outdoor tests small fish (4-6 cm in length) and larger carp and buffalo (Ictiobus cyprinellus) were used.
(§3) In all tests 10 fish of each were exposed to selective concentrations of the toxicant. Mortalities were observed and recorded at 1,2 and 6 hours on the first day and once daily thereafter, during 96 hour exposure.
(§4) Outdoor pool tests were conducted using 50% formulation of the toxicant N-(2-hydroxyethyl) digeranylamine as indicated in Example 8. […] If selective control of white sucker and common carp is desired in an environment which includes rainbow trout, one should employ an effective concentration of toxicant which is at least as great as 0.05 mg/liter but less than 0.1 mg/liter. As a practical fishery practice in the northern United States and Canada, rainbow trout are not usually stocked in bodies of water containing the common carp species; the habitat conditions including water temperature and available oxygen of these species are usually quite different. Common carp and rainbow trout have quite different oxygen and temperature requirements and these differences generally preclude both species cohabitating under natural conditions. In this case the useful range to control common carp and white sucker can be much broader, i.e. 0.1 to 0.3 mg/liter.

Carp [1] = assay: Laboratory fish toxicity test (Table 1); format: in vivo, Cyprinus carpio; conditions: tech, 12 C, soft water
Protocol: as §2, §3
(§5) Laboratory tests were also conducted in soft water 12° C. wherein the toxicant was evaluated against fifteen species of fish including both cold and warm water varieties. In Table 1, the LC 50 toxicity values for N-(2-hydroxyethyl) digeranylamine is shown for various species. LC50 is defined as the amount (mg/liter) of toxicant required to kill 50 percent of the particular fish species at 95% confidence interval.

Yellow perch = assay: Outdoor plastic pool test (Table 3); format: in vivo, Perca flavescens; conditions: for % kill: 96 hour, 50% formulation (hydrochloride salt)
Protocol: as §1, §2, §3, §4

Green sunfish [2] = assay: Laboratory fish toxicity test (Table 1); format: in vivo, Lepomis cyanellus; conditions: tech, 12 C, soft water
Protocol: as §2, §3, §5

Green sunfish [3] = assay: Outdoor plastic pool test (Table 3); format: in vivo, Lepomis cyanellus; conditions: for % kill: 96 hour, 50% formulation (hydrochloride salt)
Protocol: as §1, §2, §3, §4

Fathead minnow = assay: Outdoor plastic pool test (Table 3); format: in vivo, Pimephales promelas; conditions: for % kill: 96 hour, 50% formulation (hydrochloride salt)
Protocol: as §1, §2, §3, §4

Carp [4] = assay: Outdoor plastic pool test (Table 3); format: in vivo, Cyprinus carpio; conditions: for % kill: 50% formulation (hydrochloride salt); for survival (in words): larger carp (19 cm)
Protocol: as §1, §2, §3, §4

Water flea = assay: Static bioassay in invertebrates (Table 2); format: in vivo; conditions: Daphnia magna, tech, 17 C, limed spring water 22-36 mg/l hardness
Protocol: (§6) The effect of the various toxicants on common invertebrate species was determined in a static test conducted 17° C. The invertebrates tested were collected from natural populations or purchased from commercial suppliers. They were held in soft water in fiberglass tanks in the laboratory or in outdoor plastic swimming pools. Mortality was observed during holding, and only healthy organisms were used for the toxicity tests. At least 10 organisms of nine species were exposed to each concentration in static tests.

Snail (Pleurecera sp.) = assay: Static bioassay in invertebrates (Table 2); format: in vivo; conditions: tech, 17 C, limed spring water 22-36 mg/l hardness
Protocol: as §6

Black bullhead = assay: Outdoor plastic pool test (Table 3); format: in vivo, Ictalurus melas; conditions: for % kill: 96 hour, 50% formulation (hydrochloride salt)
Protocol: as §1, §2, §3, §4

Grass carp = assay: Outdoor plastic pool test (Table 3); format: in vivo, Ctenopharyngodon idella; conditions: for % kill: 96 hour, 50% formulation (hydrochloride salt)
Protocol: as §1, §2, §3, §4

Chinook salmon = assay: Laboratory fish toxicity test (Table 1); format: in vivo, Oncorhynchus tschawytscha; conditions: tech, 12 C, soft water
Protocol: as §2, §3, §5

White sucker = assay: Outdoor plastic pool test (Table 3); format: in vivo, Catostomus commersoni; conditions: for % kill: 96 hour, 50% formulation (hydrochloride salt); for survival (in words): white suckers
Protocol: as §1, §2, §3, §4

bluegill = assay: Toxicity to bluegill in waters of different hardness; format: in vivo, bluegill (Lepomis macrochirus)
Protocol: The selective toxicant, N-(2-hydroxyethyl)digeranylamine was evaluated against bluegill in waters of hardness of 12, 44, 170, and 300 p.p.m., total hardness as CaCo3. […] In contrast the specific aminoalkanols of this invention are selective to carp (Caprinus carpio) and effective in waters of high pH.

Dragonfly naiad = assay: Static bioassay in invertebrates (Table 2); format: in vivo, Macromia sp.; conditions: 96 hours, tech, 17 C, soft reconstituted water 42 mg/l hardness
Protocol: as §6

Structure (SMILES): CC(C)=CCC/C(C)=C/CN(C/C=C(\C)CCC=C(C)C)CCO [N-(2-hydroxyethyl) digeranylamine]
- % kill (Largemouth buffalo; 0.10 mg/l): 0%
- % kill (Largemouth buffalo; 0.15 mg/l): 20%
- % kill (Largemouth buffalo; 0.20 mg/l): 20%
- % kill (Largemouth buffalo; 0.30 mg/l): 100%
- LC50 (Carp [1]; 6 hours): 1.34 µg/mL (≈ 4.02 µM)
- LC50 (Carp [1]; 24 hours): 0.0718 µg/mL (≈ 0.215 µM)
- LC50 (Carp [1]; 96 hours, 5760 min): 0.050 µg/mL (≈ 0.15 µM)
- LC50 (Carp [1]; 96 hours, listed as N-(2-hydroxyethyl) Digeranylamine, 5760 min): 0.0507 µg/mL (≈ 0.152 µM)
- % kill (Yellow perch; 0.10 mg/l): 0%
- % kill (Yellow perch; 0.15 mg/l): 30%
- % kill (Yellow perch; 0.20 mg/l): 0%
- % kill (Yellow perch; 0.30 mg/l): 50%
- survival (in words) (Yellow perch; yellow perch, 0.30 mg/liter and lower, 50% formulation): died at 0.30 mg/liter of toxicant, but all survived lower concentrations
- LC50 (Green sunfish [2]; 24 hours): 0.640 µg/mL (≈ 1.92 µM)
- LC50 (Green sunfish [2]; 96 hours): 0.640 µg/mL (≈ 1.92 µM)
- % kill (Green sunfish [3]; 0.10 mg/l): 0%
- % kill (Green sunfish [3]; 0.15 mg/l): 0%
- % kill (Green sunfish [3]; 0.20 mg/l): 0%
- % kill (Green sunfish [3]; 0.30 mg/l): 0%
- survival (in words) (Green sunfish [3]; green sunfish, 0.3 mg/liter, 50% formulation): complete survival
- % kill (Fathead minnow; 0.10 mg/l): 0%
- % kill (Fathead minnow; 0.15 mg/l): 10%
- % kill (Fathead minnow; 0.20 mg/l): 10%
- % kill (Fathead minnow; 0.30 mg/l): 80%
- survival (in words) (Fathead minnow; fathead minnows, 0.30 mg/liter and lower, 50% formulation): died at 0.30 mg/liter of toxicant, but all survived lower concentrations
- % kill (Carp [4]; carp (large), 0.10 mg/l, 96 hour): 27%
- % kill (Carp [4]; carp (large), 0.15 mg/l, 96 hour): 66%
- % kill (Carp [4]; carp (large), 0.20 mg/l, 96 hour): 100%
- % kill (Carp [4]; carp (large), 0.30 mg/l, 96 hour): 100%
- % kill (Carp [4]; carp (small), 0.10 mg/l, 96 hour): 100%
- % kill (Carp [4]; carp (small), 0.15 mg/l, 96 hour): 100%
- % kill (Carp [4]; carp (small), 0.20 mg/l, 96 hour): 100%
- % kill (Carp [4]; carp (small), 0.30 mg/l, 96 hour): 100%
- survival (in words) (Carp [4]; 0.2 mg/liter or higher): none survived
- survival (in words) (Carp [4]; 0.10 and 0.15 mg/liter): Some white suckers and larger carp (19 cm) survived
- kill (in words) (Carp [4]; small common carp (4-6 cm), above 0.10 mg/l, 96 hour): completely eliminated at all concentrations above 0.10 mg/l
- LC50 (Water flea; 1 hour): 8 µg/mL (≈ 24 µM)
- LC50 (Water flea; 3 hour): 3.95 µg/mL (≈ 11.8 µM)
- LC50 (Water flea; 6 hours): 3 µg/mL (≈ 8.99 µM)
- LC50 (Water flea; 28 hours): 0.8 µg/mL (≈ 2.4 µM)
- LC50 (Water flea; 96 hours): 0.16 µg/mL (≈ 0.48 µM)
- LC50 (Snail (Pleurecera sp.); 28 hours): 10.3 µg/mL (≈ 30.9 µM)
- LC50 (Snail (Pleurecera sp.); 96 hours): 2.68 µg/mL (≈ 8.03 µM)
- % kill (Black bullhead; 0.10 mg/l): 0%
- % kill (Black bullhead; 0.15 mg/l): 0%
- % kill (Black bullhead; 0.20 mg/l): 0%
- % kill (Black bullhead; 0.30 mg/l): 0%
- survival (in words) (Black bullhead; black bullhead, 0.3 mg/liter, 50% formulation): complete survival
- % kill (Grass carp; 0.10 mg/l): 0%
- % kill (Grass carp; 0.15 mg/l): 0%
- % kill (Grass carp; 0.20 mg/l): 0%
- % kill (Grass carp; 0.30 mg/l): 0%
- survival (in words) (Grass carp; grass carp, 0.3 mg/liter, 50% formulation): complete survival
- LC50 (Chinook salmon; 3 hours): 0.300 µg/mL (≈ 0.899 µM)
- LC50 (Chinook salmon; 6 hours): 0.210 µg/mL (≈ 0.63 µM)
- LC50 (Chinook salmon; 24 hours): 0.167 µg/mL (≈ 0.501 µM)
- LC50 (Chinook salmon; 96 hours): 0.129 µg/mL (≈ 0.387 µM)
- % kill (White sucker; 0.10 mg/l): 20%
- % kill (White sucker; 0.15 mg/l): 70%
- % kill (White sucker; 0.20 mg/l): 100%
- % kill (White sucker; 0.30 mg/l): 100%
- survival (in words) (White sucker; 0.2 mg/liter or higher): none survived
- survival (in words) (White sucker; 0.10 and 0.15 mg/liter): Some white suckers and larger carp (19 cm) survived
- 96-hour LC50 (bluegill; total hardness 12 p.p.m. as CaCo3): 0.84 µg/mL
- 96-hour LC50 (bluegill; total hardness 44 p.p.m. as CaCo3): 0.72 µg/mL
- 96-hour LC50 (bluegill; total hardness 170 p.p.m. as CaCo3): 0.46 µg/mL
- 96-hour LC50 (bluegill; total hardness 300 p.p.m. as CaCo3): 0.33 µg/mL
- LC50 (Dragonfly naiad): 2.00 µg/mL (≈ 6 µM)
